Laboratory results published in US7868188B2, “5-heteroaryl thiazoles and their use as PI3K inhibitors” (AstraZeneca AB, priority 2004, dated 2011).
pIC50: −log10 of the molar value. Structures can show the parent of a compound that is named as a salt.

Tests used:
[1] = tested on: phosphorylation of Serine 473 in Akt (MDA-MB-468 cells); test: Test (c) In Vitro phospho-Ser473 Akt Assay; format: cell-based; conditions: Homo sapiens, read-out: IC50 versus Serine 473 in Akt
Method: This assay determines the ability of test compounds to inhibit phosphorylation of Serine 473 in Akt as assessed using Acumen Explorer technology (Acumen Bioscience Limited), a plate reader that can be used to rapidly quantitate features of images generated by laser-scanning.
A MDA-MB-468 human breast adenocarcinoma cell line (LGC Promochem, Teddington, Middlesex, UK, Catalogue No. HTB-132) was routinely maintained at 37° C. with 5% CO2 up to a confluency of 70-90% in DMEM containing 10% heat-inactivated FCS and 1% L-glutamine.
For the assay, the cells were detached from the culture flask using ‘Accutase’ (Innovative Cell Technologies Inc., San Diego, Calif., USA; Catalogue No. AT104) using standard tissue culture methods and resuspended in media to give 1.7×10^5 cells per ml. Aliquots (90 μl) were seeded into each of the inner 60 wells of a black Packard 96 well plate (PerkinElmer, Boston, Mass., USA; Catalogue No. 6005182) to give a density of ˜15000 cells per well. Aliquots (90 μl) of culture media were placed in the outer wells to prevent edge effects. The cells were incubated overnight at 37° C. with 5% CO2 to allow them to adhere.
On day 2, the cells were treated with test compounds and incubated for 2 hours at 37° C. with 5% CO2. Test compounds were prepared as 10 mM stock solutions in DMSO and serially diluted as required with growth media to give a range of concentrations that were 10-fold the required final test concentrations. Aliquots (10 μl) of each compound dilution were placed in a well (in triplicate) to give the final required concentrations. As a minimum response control, each plate contained wells having a final concentration of 100 μM LY294002 (Calbiochem, Beeston, UK, Catalogue No. 440202). As a maximum response control, wells contained 1% DMSO instead of test compound. Following incubation, the contents of the plates were […] by treatment with a 1.6% aqueous formaldehyde solution (Sigma, Poole, Dorset, UK, Catalogue No. F1635) at room temperature for 1 hour.
All subsequent aspiration and wash steps were carried out using a Tecan 96 well late washer (aspiration speed 10 mm/sec). The fixing solution was removed and the contents of the plates were washed with phosphate-buffered saline (PBS; 50 μl; Gibco, Catalogue No. 10010015). The contents of the plates were treated for 10 minutes at room temperature with an aliquot (50 μl) of a cell permeabilisation buffer consisting of a mixture of PBS and 0.5% Tween-20. […] An aliquot of PBS (50 μl) was added to each well and the plates were sealed with black plate sealers and the fluorescence signal was detected and analysed.
Fluorescence dose response data obtained with each compound were analysed and the degree of inhibition of Serine 473 in Akt was expressed as an IC50 value.

p110α Type Ia human PI3K = molecular target: T1, p110α Type Ia human PI3K (Homo sapiens, UniProt P42336); test: Test (a) In Vitro PI3K Enzyme Assay (AlphaScreen); format: biochemical; conditions: read-out: IC50 versus p110α PI3K
T1 construct: full length DNA of each of the p110α, p110β and p110δ Type Ia human PI3K p110 isoforms; 6-His; made in house; host or cells: baculovirus expression system (Sf9 is named only for PI3Kγ)
Text: The assay used AlphaScreen technology (Gray et al., Analytical Biochemistry, 2003, 313: 234-245) to determine the ability of test compounds to inhibit phosphorylation by recombinant Type I PI3K enzymes of the lipid PI(4,5)P2.
DNA fragments encoding human PI3K catalytic and regulatory subunits were isolated from cDNA libraries using standard molecular biology and PCR cloning techniques. The selected DNA fragments were used to generate baculovirus expression vectors. In particular, full length DNA of each of the p110α, p110β and p110δ Type Ia human PI3K p110 isoforms (EMBL Accession Nos. HSU79143, S67334, Y10055 for p110α, p110β and p110δ respectively) were sub-cloned into a pDEST10 vector (Invitrogen Limited, Fountain Drive, Paisley, UK). The vector is a Gateway-adapted version of Fastbac1 containing a 6-His epitope tag. A truncated form of Type Ib human PI3K p110γ isoform corresponding to amino acid residues 144-1102 (EMBL Accession No. X8336A) and the full length human p85α regulatory subunit (EMBL Accession No. HSP13KIN) were also sub-cloned into pFastBac1 vector containing a 6-His epitope tag. The Type Ia p110 constructs were co-expressed with the p85α regulatory subunit. Following expression in the baculovirus system using standard baculovirus expression techniques, expressed proteins were purified using the His epitope tag using standard purification techniques.
DNA corresponding to amino acids 263 to 380 of human general receptor for phosphoinositides (Grp1) PH domain was isolated from a cDNA library using standard molecular biology and PCR cloning techniques. The resultant DNA fragment was sub-cloned into a pGEX 4T1 E. coli expression vector containing a GST epitope tag (Amersham Pharmacia Biotech, Rainham, Essex, UK) as described by Gray et al., Analytical Biochemistry, 2003, 313: 234-245). The GST-tagged Grp1 PH domain was expressed and purified using standard techniques.
Test compounds were prepared as […] stock solutions in DMSO and diluted into water as required to give a range of final assay concentrations. Aliquots (2 μl) of each compound dilution were placed into a well of a Greiner 384-well low volume (LV) white polystyrene plate (Greiner Bio-one, Brunel Way, Stonehouse, Gloucestershire, UK Catalogue No. 784075). […]
Biotinylated-DiC8-PI(3,4,5)P3 (50 nM; Cell Signals Inc., Catalogue No. 107), recombinant purified GST-Grp1 PH protein (2.5 nM) and AlphaScreen Anti-GST donor and acceptor beads (100 ng; Packard Bioscience Limited, Station Road, Pangbourne, Berkshire, UK, Catalogue No. 6760603M) were added and the assay plates were left for about 5 to 20 hours at room temperature in the dark. The resultant signals arising from laser light excitation at 680 nm were read using a Packard AlphaQuest instrument. […]

T1 sequence (P42336 whole entry, canonical isoform): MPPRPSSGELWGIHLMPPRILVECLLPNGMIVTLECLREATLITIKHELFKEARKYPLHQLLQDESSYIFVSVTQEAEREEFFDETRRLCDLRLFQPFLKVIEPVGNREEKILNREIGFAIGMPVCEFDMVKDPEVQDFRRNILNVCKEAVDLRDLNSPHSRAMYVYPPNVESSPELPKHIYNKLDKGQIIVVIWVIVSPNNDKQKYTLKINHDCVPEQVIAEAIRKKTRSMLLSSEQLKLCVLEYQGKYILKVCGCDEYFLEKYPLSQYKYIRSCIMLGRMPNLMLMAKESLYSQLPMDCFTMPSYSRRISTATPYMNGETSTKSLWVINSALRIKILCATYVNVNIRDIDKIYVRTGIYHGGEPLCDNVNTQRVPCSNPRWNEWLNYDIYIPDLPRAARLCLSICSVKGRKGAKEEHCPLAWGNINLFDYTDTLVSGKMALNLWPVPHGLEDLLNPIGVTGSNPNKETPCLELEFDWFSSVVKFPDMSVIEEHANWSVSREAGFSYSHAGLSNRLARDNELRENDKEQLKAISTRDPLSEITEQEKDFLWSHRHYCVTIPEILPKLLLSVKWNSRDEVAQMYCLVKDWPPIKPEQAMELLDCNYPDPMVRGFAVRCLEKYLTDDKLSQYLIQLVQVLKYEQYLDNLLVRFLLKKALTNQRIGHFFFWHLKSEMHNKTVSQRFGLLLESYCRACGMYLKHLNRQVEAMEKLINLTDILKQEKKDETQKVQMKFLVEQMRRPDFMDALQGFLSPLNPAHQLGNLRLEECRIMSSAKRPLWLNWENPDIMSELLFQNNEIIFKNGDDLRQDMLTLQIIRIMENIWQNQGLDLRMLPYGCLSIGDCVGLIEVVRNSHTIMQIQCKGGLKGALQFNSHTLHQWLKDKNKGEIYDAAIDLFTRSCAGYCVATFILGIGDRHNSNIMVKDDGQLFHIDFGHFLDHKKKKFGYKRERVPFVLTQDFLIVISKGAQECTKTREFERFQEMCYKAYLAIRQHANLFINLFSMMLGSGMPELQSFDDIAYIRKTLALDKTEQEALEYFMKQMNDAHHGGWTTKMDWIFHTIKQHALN
T1 sequence (P27986 whole entry partner, canonical isoform): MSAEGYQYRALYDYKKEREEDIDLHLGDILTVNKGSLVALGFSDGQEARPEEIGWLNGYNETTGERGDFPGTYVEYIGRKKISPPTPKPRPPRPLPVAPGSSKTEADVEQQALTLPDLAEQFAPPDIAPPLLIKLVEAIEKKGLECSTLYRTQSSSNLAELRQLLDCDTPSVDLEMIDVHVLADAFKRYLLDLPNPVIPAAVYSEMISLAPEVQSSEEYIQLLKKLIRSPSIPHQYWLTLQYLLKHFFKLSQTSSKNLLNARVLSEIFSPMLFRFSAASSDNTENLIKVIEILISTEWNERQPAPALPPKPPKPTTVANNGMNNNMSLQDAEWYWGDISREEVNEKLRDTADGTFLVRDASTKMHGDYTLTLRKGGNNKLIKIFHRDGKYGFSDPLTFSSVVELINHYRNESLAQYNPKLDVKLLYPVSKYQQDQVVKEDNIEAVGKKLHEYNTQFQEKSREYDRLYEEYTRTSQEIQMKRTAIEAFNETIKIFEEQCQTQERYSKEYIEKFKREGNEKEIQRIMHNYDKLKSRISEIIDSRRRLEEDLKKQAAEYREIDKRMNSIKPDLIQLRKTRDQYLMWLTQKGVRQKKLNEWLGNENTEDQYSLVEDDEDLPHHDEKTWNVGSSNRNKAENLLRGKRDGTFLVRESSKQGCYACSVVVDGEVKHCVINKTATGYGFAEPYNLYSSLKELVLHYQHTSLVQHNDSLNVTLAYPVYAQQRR

## CC(=O)Nc1nc(C)c(-c2cnc(Cl)c(NS(=O)(=O)c3ccccc3)c2)s1 [Example 13, N-{5-[6-Chloro-5-(phenylsulfonylamino)pyridin-3-yl]-4-methyl-1,3-thiazol-2-yl}acetamide trifluoroacetate]
[1]
  pIC50: ~7.70
p110α Type Ia human PI3K
  pIC50: ~8.00
